The subject of series [1] is Aspergillus brasiliensis. Particulars: when used in cosmetics; Daily Chemical Industry 2015, 45:269; cited from earlier work.
Series [2] has as its system Pseudomonas aeruginosa. The settings on record: when used in cosmetics; Daily Chemical Industry 2015, 45:269; cited from earlier work.
Series [3] in a line: Solubility test e): 4-HAP + 5 wt. % 1,2-pentanediol (Hydrolite 5) in cold water. Format: physicochemical. Particulars: for dissolution result: after ca. 50 min.
A short description of series [4]: Solubility test d): 4-HAP + 3 wt. % 1,2-pentanediol (Hydrolite 5) + 5 wt. % glycerin in warm water. It counts as physicochemical. Particulars: for dissolution result: heating up to 50° C. and cooling down while stirring; for crystals on storage: stored at 5° C. and room temperature, after 24 h.
Series [5] can be described thus: General properties: behaviour when put into water. It counts as physicochemical. The settings on record: solid put into water in a beaker.
The nature of series [6]: Solubility test c): 4-HAP + 3 wt. % 1,2-pentanediol (Hydrolite 5) + 5 wt. % glycerin in cold water. It counts as physicochemical.
Where [7] appears, read: 0.5 wt. % 4-HAP + 5 wt. % 1,2-pentanediol.
The mark [8] stands for this setting: 1 wt. % 4-HAP + 5 wt. % 1,2-pentanediol.
[9] abbreviates: 0.5 wt. % 4-HAP + 3 wt. % 1,2-pentanediol + 5 wt. % glycerin.
Where [10] appears, read: 1 wt. % 4-HAP + 3 wt. % 1,2-pentanediol + 5 wt. % glycerin.

This is an account of results in US10981854B2 (SYMRISE AG, priority 2016, dated 2021).

Turning to `CC(=O)c1ccc(O)cc1` [4-hydroxyacetophenone], the “ability to kill Aspergillus brasiliensis” value in series [1] is recorded as “great ability to kill”. The “ability to restrain Pseudomonas aeruginosa” value in series [2] is given as “certain ability to restrain”.

`CC(=O)c1ccc(O)cc1` [Example 3, 4-hydroxyacetophenone]: the “time until solved completely” value in series [3] (setting [7]), in series [3] (setting [8]), in series [6] (setting [9]) and in series [6] (setting [10]) was “ca. 50 min” throughout. The crystallization/precipitation on storage entry in series [3] (0.5 wt. % 4-HAP + 5 wt. % 1,2-pentanediol, after 24 h of storage) is on record as “no crystallization/precipitation”; in series [6] (1 wt. % 4-HAP + 3 wt. % 1,2-pentanediol + 5 wt. % glycerin, after 24 h of storage), “no crystallization/precipitation”. Further, the “storage time after which crystallization” value in series [3] (1 wt. % 4-HAP + 5 wt. % 1,2-pentanediol, stored at 5° C.) is given as 24 h. Further, the dissolution result in series [4] (setting [9]) and in series [4] (setting [10]) was “solved completely” throughout. Besides, the crystals on storage entry in series [4] (setting [9]) and in series [4] (setting [10]) was “no crystals” throughout. The “behaviour when put into water” value in series [5] is “distributes on the surface and slowly falls to the ground of the beaker”. In addition, the “storage time after which crystallization/precipitation” value in series [6] (setting [9]) worked out at 48 h.

Turning to `CC(=O)c1ccc(O)cc1` [Example 4, 4-hydroxyacetophenone], the dissolution result is on record as “a few little lumps of solid left undissolved” in series [3] (setting [7]); “lumps of solid left undissolved” in series [3] (setting [8]); “solved completely” in series [4] (setting [9]); “solved completely” in series [4] (setting [10]); “a few lumps of solid left undissolved” in series [6] (1 wt. % 4-HAP + 3 wt. % 1,2-pentanediol + 5 wt. % glycerin, after stirring for 60 min). The crystals on storage entry in series [4] (setting [9]) and in series [4] (setting [10]) was “no crystals” throughout. Further, the “behaviour when put into water” value in series [5] was “agglomerates and sinks to the ground”. Besides, the “storage time after which crystallization/precipitation” value in series [6] (setting [9]) is 48 h. The “time until solved completely” value in series [6] (setting [9]) was “ca. 50 min”.
